# Experimental data reported in patent US20140155406A1, “4-IMIDAZOPYRIDAZIN-1-YL-BENZAMIDES AND 4-IMIDAZOTRIAZIN-1-YL-BENZAMIDES BTK INHIBITORS” (priority 2011, published 2014).
# How the values were obtained:
# Assay type in all cases: biochemical
# FynT enzyme = biological target: T1, FynT enzyme (Homo sapiens, UniProt P06241); test: FynT enzyme activity, IMAP fluorescence polarization assay; details: 60 min pre-incubation, 0.2 μM ATP (Km)
# T1 construct: purchased Biomol SE-287
# Summary of the method: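 FynT (125 ng/mL final) pre-incubated 60 min at RT with compound (10 μM–0.316 nM, 1% DMSO) in pH 7.2 Tris/Mg/Mn buffer, then 100 nM fluorescein p34cdc2 peptide and 0.2 μM ATP (Km) for 2 h at RT. IMAP binding FP read at 535 nm; EC50 from curve fit versus ±ATP controls.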
# Lck enzyme = biological target: T2, Lck enzyme (Homo sapiens, UniProt P06239); test: Lck enzyme activity, IMAP fluorescence polarization assay; details: 60 min pre-incubation, 6 μM ATP (Km)
# T2 construct: purchased Millipore 14-442
# T2 sequence (P06239 whole entry): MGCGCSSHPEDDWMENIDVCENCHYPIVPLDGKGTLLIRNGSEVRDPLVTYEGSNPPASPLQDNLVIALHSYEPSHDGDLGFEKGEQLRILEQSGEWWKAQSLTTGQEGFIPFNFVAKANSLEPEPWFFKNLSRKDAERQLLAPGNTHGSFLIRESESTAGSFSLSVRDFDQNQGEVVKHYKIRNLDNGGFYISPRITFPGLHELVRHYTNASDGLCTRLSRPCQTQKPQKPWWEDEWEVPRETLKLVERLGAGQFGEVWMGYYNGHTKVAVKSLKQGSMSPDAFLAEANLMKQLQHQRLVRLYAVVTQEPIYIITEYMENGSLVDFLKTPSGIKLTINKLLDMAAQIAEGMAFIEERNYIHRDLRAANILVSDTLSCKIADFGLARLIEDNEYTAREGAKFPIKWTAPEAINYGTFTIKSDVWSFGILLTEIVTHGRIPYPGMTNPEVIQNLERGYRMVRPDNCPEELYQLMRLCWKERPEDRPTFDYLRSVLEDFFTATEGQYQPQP
# Src enzyme = biological target: T3, Src enzyme (Homo sapiens, UniProt P12931); test: Src enzyme activity, IMAP fluorescence polarization assay; details: 60 min pre-incubation, 4 μM ATP (Km)
# T3 construct: purchased Millipore 14-326
# T3 sequence (P12931 whole entry): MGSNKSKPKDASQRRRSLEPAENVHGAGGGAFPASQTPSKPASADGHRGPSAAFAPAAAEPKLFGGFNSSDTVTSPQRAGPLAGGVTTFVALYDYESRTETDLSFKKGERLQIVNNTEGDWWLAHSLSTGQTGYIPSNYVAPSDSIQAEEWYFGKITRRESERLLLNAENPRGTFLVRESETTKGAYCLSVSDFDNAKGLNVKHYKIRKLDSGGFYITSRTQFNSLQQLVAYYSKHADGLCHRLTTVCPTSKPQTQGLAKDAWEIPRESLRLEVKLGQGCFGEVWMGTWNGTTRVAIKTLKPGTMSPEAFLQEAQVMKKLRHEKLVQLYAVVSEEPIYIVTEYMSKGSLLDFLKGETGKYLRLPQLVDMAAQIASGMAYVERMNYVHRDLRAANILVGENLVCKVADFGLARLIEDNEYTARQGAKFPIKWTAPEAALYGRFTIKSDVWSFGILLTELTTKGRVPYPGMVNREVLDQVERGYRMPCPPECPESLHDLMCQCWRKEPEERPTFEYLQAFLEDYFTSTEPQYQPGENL
# Summary of the method: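 Src at 0.2 U/mL final, pre-incubated 60 min at RT with compound (10 μM to 0.316 nM final, 1% DMSO) in pH 7.2 Tris/Mg/Mn buffer. Reaction with 100 nM fluorescein-p34cdc2 peptide and 4 μM ATP (Km) ran 2 h at RT, then IMAP binding and FP at 535 nm. EC50 from curve fit of % control.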
# T1 sequence (P06241 1-534 isoform P06241-2): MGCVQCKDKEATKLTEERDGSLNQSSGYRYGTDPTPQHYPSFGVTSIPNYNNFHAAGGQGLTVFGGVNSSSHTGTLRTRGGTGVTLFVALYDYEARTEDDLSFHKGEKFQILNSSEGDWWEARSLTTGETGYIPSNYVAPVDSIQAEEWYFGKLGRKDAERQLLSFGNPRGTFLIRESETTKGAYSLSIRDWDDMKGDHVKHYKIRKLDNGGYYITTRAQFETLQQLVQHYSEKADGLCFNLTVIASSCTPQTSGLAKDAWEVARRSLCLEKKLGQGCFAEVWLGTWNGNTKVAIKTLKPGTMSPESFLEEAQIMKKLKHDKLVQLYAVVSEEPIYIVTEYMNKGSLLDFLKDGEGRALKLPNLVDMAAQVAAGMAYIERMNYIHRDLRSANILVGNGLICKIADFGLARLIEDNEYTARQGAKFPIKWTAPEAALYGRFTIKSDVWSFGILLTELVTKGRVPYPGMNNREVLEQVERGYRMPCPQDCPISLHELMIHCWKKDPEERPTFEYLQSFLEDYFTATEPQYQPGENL
EC50 (FynT enzyme) [nM],EC50 (Lck enzyme) [nM],EC50 (Src enzyme) [nM],Structure (SMILES)
≥ 1000,≥ 1000,≥ 1000,"CC#CC(=O)N(C)[C@@H](C)c1nc(-c2ccc(C(=O)Nc3cc(CCC)ccn3)cc2)c2c(C)nccn12 [Example 24, (S)-4-(8-methyl-3-(1-(N-methylbut-2-ynamido)ethyl)imidazo[1,5-a]pyrazin-1-yl)-N-(4-propylpyridin-2-yl)benzamide]"
≥ 1000,≥ 1000,≥ 1000,"Cc1nccn2c([C@@H]3CCCN3C(=O)/C=C/CN3CCCC3)nc(-c3ccc(C(=O)Nc4ccccn4)cc3)c12 [Example 25, (S,E)-4-(8-methyl-3-(1-(4-(pyrrolidin-1-yl)but-2-enoyl)pyrrolidin-2-yl)imidazo[1,5-a]pyrazin-1-yl)-N-(pyridin-2-yl)benzamide]"
≥ 1000,≥ 1000,≥ 1000,"C=CC(=O)N1CCCC[C@H]1c1nc(-c2ccc(C(=O)Nc3cc(C(F)(F)F)ccn3)cc2)c2c(C)nccn12 [Example 27, (S)-4-(3-(1-acryloylpiperidin-2-yl)-8-methylimidazo[1,5-a]pyrazin-1-yl)-N-(4-(trifluoromethyl)pyridin-2-yl)benzamide]"
≥ 1000,≥ 1000,≥ 1000,"CCCc1ccnc(NC(=O)c2ccc(-c3nc([C@H](C)NC(=O)/C=C/CN(C)C)n4ccnc(C)c34)cc2)c1 [Example 28, (S,E)-4-(3-(1-(4-(dimethylamino)but-2-enamido)ethyl)-8-methylimidazo[1,5-a]pyrazin-1-yl)-N-(4-propylpyridin-2-yl)benzamide]"
≥ 1000,≥ 1000,≥ 1000,"CC#CC(=O)N1CCCC[C@H]1c1nc(-c2ccc(C(=O)Nc3cc(C(F)(F)F)ccn3)cc2)c2c(C)nccn12 [Example 29, (S)-4-(3-(1-but-2-ynoylpiperidin-2-yl)-8-methylimidazo[1,5-a]pyrazin-1-yl)-N-(4-(trifluoromethyl)pyridin-2-yl)benzamide]"
≥ 1000,≥ 1000,≥ 1000,"CCCc1ccnc(NC(=O)c2ccc(-c3nc([C@@H]4CCCCN4C(=O)/C=C/CN4CCCC4)n4ccnc(C)c34)cc2)c1 [Example 35, (S,E)-4-(8-methyl-3-(1-(4-(pyrrolidin-1-yl)but-2-enoyl)piperidin-2-yl)imidazo[1,5-a]pyrazin-1-yl)-N-(4-propylpyridin-2-yl)benzamide]"
≥ 1000,≥ 1000,≥ 1000,"CCCc1ccnc(NC(=O)c2ccc(-c3nc([C@H](C)NC(=O)/C=C/COC)n4ccnc(C)c34)cc2)c1 [Example 36, (S,E)-4-(3-(1-(4-methoxybut-2-enamido)ethyl)-8-methylimidazo[1,5-a]pyrazin-1-yl)-N-(4-propylpyridin-2-yl)benzamide]"
≥ 1000,≥ 1000,≥ 1000,"Cc1nccn2c([C@@H]3CCCCN3C(=O)/C=C/CN(C)C)nc(-c3ccc(C(=O)Nc4cc(C(F)(F)F)ccn4)cc3)c12 [Example 37, (S,E)-4-(3-(1-(4-(dimethylamino)but-2-enoyl)piperidin-2-yl)-8-methylimidazo[1,5-a]pyrazin-1-yl)-N-(4-(trifluoromethyl)pyridin-2-yl)benzamide]"
≥ 1000,≥ 1000,≥ 1000,"CC#CC(=O)N[C@@H](C)c1nc(-c2ccc(C(=O)Nc3cc(CCC)ccn3)cc2)c2c(C)nccn12 [Example 38, (S)-4-(3-(1-but-2-ynamidoethyl)-8-methylimidazo[1,5-a]pyrazin-1-yl)-N-(4-propylpyridin-2-yl)benzamide]"
